# Measurements from patent US10752596B2, “Nitrogen-containing heteroaryl compound and pharmaceutical use thereof” (JAPAN TOBACCO INC., priority 2017, dated 2020).
# Structures can show the parent of a compound that is named as a salt.
# Target: human GLUT9 (Homo sapiens (Human), UniProt Q9NRM0)
# Experiment: Evaluation of human GLUT9 inhibitory activity ([14C] uric acid uptake in human GLUT9 expressing HEK293T cells transduced with Uricase/Hyper)
# Type: cell-based
# Details: HEK-293T, 10 μM compound, human GLUT9 stably expressing HEK293T cells, read-out: GLUT9 inhibitory rate at 10 μM of compound
# Protocol: A method for measuring GLUT9 inhibitory activity using human GLUT9 expressing cells transduced with Uricase/Hyper is shown hereinafter. GLUT9 inhibitory activity ([…]) of the test compound was calculated based on the intracellular uptake amount of labeled uric acid ([^14C] uric acid) transported by GLUT9.
# 1. Preparation of Human GLUT9 Expression Plasmid
# Human GLUT9S coding region (NM_001001290.1) was amplified by PCR method using PrimeSTAR MAX DNA Polymerase (Takara Bio). The obtained PCR product was subjected to agarose gel electrophoresis, and the desired size of PCR product was purified by QIAquick Gel Extraction Kit (QIAGEN). Next, pEBMulti-Bsd vector (Wako Pure Chemical Industries, Ltd.) was subjected to digestion using restriction enzymes SalI and EcoR V, and linked to the PCR product containing GLUT9S by In-Fusion reaction using In-Fusion HD Cloning Kit (Takara Bio). XL10-Gold Competent Cells (Agilent Technologies) were transformed in In-Fusion reaction solution, and the obtained transfectants were cultured with shaking overnight in LB medium to which Blasticidin S HCl (Thermo Fisher Scientific) was added. Human GLUT9 expression plasmid DNA was prepared from the collected transfectants using EndoFree Plasmid Kit (Takara Bio).
# 2. Establish of Human GLUT9 Stably Expressing Cell
# HEK293T cells (American Type Culture Collection, DS Pharma Biomedical) were seeded in a 6 well plate at 1×10^6 cells/well. Next day, human GLUT9 expression plasmid was transfected by using Lipofectamine 3000 Reagent (Thermo Fisher Scientific) as follows. Lipofectamine 3000 Reagent (5 μL) was diluted with Opti-MEM (125 μL, Thermo Fisher Scientific). Separately, plasmid DNA (2.5 μg) was diluted with Opti-MEM (125 μL), and P3000 Reagent (5 μL) was added thereto. The obtained solution was mixed with the previously obtained diluted solution, and the mixture was left stand at room temperature for 5 min, and added to the cells. Next day, the transfected cells were diluted and reseeded in a 6 well plate at 4×10^5 cells/well, and drug selection was performed in the presence of 30 μg/mL of Blasticidin S HCl, and thereby, Blasticidin-resistant human GLUT9 stably expressing cell line was established. Mock cells were prepared by introducing pEBMulti-Bsd vector into HEK293T cells in a similar manner.
# 3. Preparation of Uricase/Hyper Expression Plasmid
# Uricase/Hyper expression plasmid was prepared by linking the coding regions of Aspergillus Flavus-derived uricase gene and pHyPer-Cyto vector (Evrogen) HyPer gene to the pEBMulti-Hyg vector (Wako Pure Chemical Industries, Ltd.) and then introducing it. The preparation method was performed by reference to Gout and Nucleic Acid Metabolism 2013, 37(2), 93-101, and seven repeated linker sequence of glycine-glycine-glycine-serine was prepared herein.
# 4. Preparation of Human GLUT9-Uricase/Hyper Coexpressing Cell
# Human GLUT9 stably expressing cells were seeded at 3.6×10^7 cells per 225 cm^2 flask. Next day, Uricase/Hyper expression plasmid was transfected by using Lipofectamine 3000 Reagent as follows. Lipofectamine 3000 Reagent (40 μL) was diluted with Opti-MEM (750 μL). Separately, plasmid DNA (20 μg) was diluted with Opti-MEM (750 μL), and P3000 Reagent (40 μL) was added thereto. The obtained solution was mixed with the previously obtained diluted solution, and the mixture was left stand at room temperature for 5 min, and added to the cells. Next day, transfected cells were collected to prepare human GLUT9-Uricase/Hyper coexpressing cells.
# 5. Evaluation of GLUT9 Inhibitory Activity
# Uricase/Hyper transiently-transfected human GLUT9 stably expressing cells or mock cells (blank) were seeded in a 96 well plate (Corning) at 1.6×10^5 cells/well, and cultured overnight at 37° C., 5% CO2. D-MEM/high glucose (Wako Pure Chemical Industries, Ltd.) containing 10% Fetal Bovine Serum (Lifetechnology) and 100 units/ml penicillin/100 μg/ml streptomycin (GIBCO) was used as a medium.
# Sequence of human GLUT9 (Q9NRM0 other isoform, or with tags, fused parts or gaps): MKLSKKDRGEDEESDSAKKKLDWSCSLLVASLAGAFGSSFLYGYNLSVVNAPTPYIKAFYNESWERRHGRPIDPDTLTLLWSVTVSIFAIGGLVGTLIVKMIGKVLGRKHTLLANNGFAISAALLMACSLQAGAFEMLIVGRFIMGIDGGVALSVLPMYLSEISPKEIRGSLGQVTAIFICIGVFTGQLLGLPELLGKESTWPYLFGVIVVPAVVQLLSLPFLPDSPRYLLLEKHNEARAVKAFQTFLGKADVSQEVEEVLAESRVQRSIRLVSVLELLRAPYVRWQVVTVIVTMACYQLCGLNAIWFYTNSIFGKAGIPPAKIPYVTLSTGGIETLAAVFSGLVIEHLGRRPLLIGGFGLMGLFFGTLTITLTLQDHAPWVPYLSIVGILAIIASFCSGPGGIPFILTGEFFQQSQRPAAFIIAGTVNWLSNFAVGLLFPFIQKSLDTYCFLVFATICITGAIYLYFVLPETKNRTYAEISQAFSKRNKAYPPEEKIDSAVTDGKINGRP
row,inhibition at 10 µM [%],Structure (SMILES)
1,10,"CCCCNC(=O)c1cnc(-c2ccc(OC)cc2)c(-c2ccc(C(=O)O)cc2)c1 [Example 76, 4-(5-(butylcarbamoyl)-2-(4-methoxyphenyl)pyridin-3-yl)benzoic Acid Hydrochloride]"
2,9,CCCCc1cnc(-c2ccc(C(=O)O)cc2)c(-c2ccc(C(=O)O)cc2)n1 [Example 7]

# Same assay, conditions: final 300 μM uric acid, 6 min, human GLUT9 stably expressing HEK293T cells, read-out: humans GLUT9 inhibitory activity (IC50 value (μM))
row,IC50 [µM],Structure (SMILES)
1,0.125,CCCOCc1cnc(-c2ccc(OC)cc2)c(-c2ccc(C(=O)O)c(C)c2)c1 [Example 143]
2,0.119,COCCCCc1cnc(-c2cc(F)c(OC)c(F)c2)c(-c2ccc(C(=O)O)cc2)n1 [Example 35]
3,0.659,COc1ccc(-c2ncc(CCC3CCCC3)cc2-c2ccc(C(=O)O)cc2)cc1 [Example 63]
4,0.501,COCCOCCCc1cnc(-c2ccc(OC)cc2)c(-c2ccc(C(=O)O)cc2)c1 [Example 119]
5,0.0574,COc1c(F)cc(-c2ncc(CC(C)C)nc2-c2ccc(C(=O)O)c(C)c2)cc1F [Example 149]
6,0.928,CCCCc1cnc(-c2ccc(C(C)C)cc2)c(-c2ccc(C(=O)O)cc2)n1 [Example 88]
7,0.12,COCCCCc1cnc(-c2ccc(OC)cc2)c(-c2ccc(C(=O)O)cc2)n1 [Example 20]
8,0.101,COCCCc1cnc(-c2ccc(OC)c(F)c2)c(-c2ccc(C(=O)O)cc2)c1 [Example 106]
9,0.059,CCCCc1cnc(-c2cc(F)c(OC)c(F)c2)c(-c2ccc(C(=O)O)c(C)c2)n1 [Example 152]
10,0.167,CCOCCc1cnc(-c2ccc(OC)cc2)c(-c2ccc(CCC(=O)O)cc2)c1 [Example 139]
11,1.8,CCCCc1cnc(-c2ccc(C3COC3)cc2)c(-c2ccc(C(=O)O)cc2)n1 [Example 89]
12,0.526,CCCCc1cnc(-c2ccc(OC)cc2)c(-c2ccc(CC(=O)O)c(F)c2)n1 [Example 72]
13,4.25,CCCCc1cnc(-c2ccc(C(F)(F)F)c(C(F)(F)F)c2)c(-c2ccc(C(=O)O)cc2)n1 [Example 28]
14,0.102,COc1c(F)cc(-c2ncc(CC(C)C)nc2-c2ccc(CCC(=O)O)cc2)cc1F [Example 150]
15,0.102,CCCCc1cnc(-c2cc(F)c(OC)c(F)c2)c(-c2ccc(CCC(=O)O)cc2)n1 [Example 153]
16,0.543,CCOCCc1cnc(-c2cc(F)c(OC)c(F)c2)c(-c2ccc(C(=O)O)cc2)n1 [Example 117]
17,0.0868,CCCOCc1cnc(-c2cc(F)c(OC)c(F)c2)c(-c2ccc(C(=O)O)c(C)c2)c1 [Example 147]
18,0.111,CCCc1cnc(-c2ccc(OC)cc2)c(-c2ccc(C(=O)O)cc2)n1 [Example 37]
19,0.0605,COc1c(F)cc(-c2ncc(CC(C)C)nc2-c2ccc(C(=O)O)cc2)cc1F [Example 98]
20,6.5,COc1ccc(-c2ncc(CCC3CCCCC3)cc2-c2ccc(C(=O)O)cc2)cc1 [Example 42]
21,7.13,COc1ccc(-c2ncc(CCCOCCO)cc2-c2ccc(C(=O)O)cc2)cc1 [Example 43]
22,1.45,CCCCc1cnc(-c2ccc(OC)cc2)c(-c2ccc(C(=O)O)cc2)c1C [Example 39]
23,0.0807,CCCCc1cnc(-c2ccc(OC)cc2)c(-c2ccc(C(=O)O)cc2)n1 [Example 1]
24,0.155,COCCCCc1cnc(-c2cc(F)c(OC)c(F)c2)c(-c2ccc(C(=O)O)c(Cl)c2)c1 [Example 131]
25,0.0585,CCOCCCc1cnc(-c2ccc(OC)cc2)c(-c2ccc(C(=O)O)cc2)c1 [Example 77]
26,0.0627,COCCCc1cnc(-c2cc(F)c(OC)c(F)c2)c(-c2ccc(C(=O)O)cc2)c1 [Example 107]
27,0.0844,CCCCc1cnc(-c2ccc(OC(F)(F)F)cc2)c(-c2ccc(C(=O)O)cc2)n1 [Example 75]
28,1.78,CCCCc1cnc(-c2ccc(F)cc2)c(-c2ccc(C(=O)O)cc2)n1 [Example 10]
29,1.67,CCCCc1cnc(-c2ccc(OC)cc2)c(-c2ccc(OCC(=O)O)cc2)n1 [Example 70]
30,0.247,CCCCc1cnc(-c2ccc(OC)cc2)c(-c2ccc(C(=O)O)c(O)c2)n1 [Example 91]
